Experimental data as given in patent publication US9248085B2, “Effective depilatory article” (The Procter & Gamble Company, priority 2011, dated 2016).

Assay: Hair removal from the skin and skin irritation by thioglycolate salts (statement, no method)
Format: in vivo
Details: even at low doses

## O=C([O-])CS.[K+] [potassium thioglycolate]
  hair removal from the skin: effective at removing hair from the skin
